Laboratory results: patent US10221255B2, “Composition for the immediate stopping of a free-radical polymerization” (BASF SE, priority 2015, dated 2019)

Legend:
[1] = Heating test in acrylic acid: inhibition period at 120° C. under air; conditions: PTZ 20 ppm in acrylic acid, average of three
Experimental: In this example, heating tests in acrylic acid (AA) were carried out. In this test, a sample of acrylic acid is maintained at 120° C. under an air atmosphere and the time until occurrence of turbidity in the solution is determined. The time is considered to be the inhibition period (IP) of the acrylic acid sample.
A part 1 was taken from the pure acrylic acid distillate RD and a stock solution 1 comprising 1000 ppm by weight of phenothiazine (PTZ) was produced with stirring.
40 parts by weight of stock solution 1 were mixed with 960 parts by weight of the pure acrylic acid distillate RD so as to give the stock solution 3. Part of this stock solution 3 was divided into identical samples having volumes of 1 ml.
Samples taken from the stock solutions 2 were combined with the various 1 ml samples obtained from the stock solutions 3 in such a way that the desired compositions of acrylic acid, phenothiazine (PTZ), ionic liquids IL, solvents LM or mixtures IL/LM of ionic liquids IL with solvents LM were obtained by doping. The doped samples produced in this way were provided for further examination on the same day. For repeat measurements, fresh doped samples were produced in order to minimize the influence of the acrylic acid oligomers obtained by Michael oligomerization.
To examine the polymerization tendency of the respective doped sample, three HPLC vials (transparent vessels having a fill volume of 1.5 ml) were in each case charged with 0.5 ml of the respective sample under air and subsequently tightly closed by means of a crimped cap. Immediately after production, in each case up to 92 vials charged as described were hung in a holder made for this purpose and kept at a temperature of 120° C. in a convection drying oven while the holder rotated at six revolutions per minute in order to ensure complete mixing in the vials (the liquid content of the respective vial came into contact with the crimped cap six times per minute). The time T to complete polymerization of the respective sample in the associated vial was then measured. For this purpose, the samples in the vials in the drying oven were monitored by means of a digital video camera and the video film was subsequently evaluated visually.
Three associated values of T were determined in this way for each doped sample and these were arithmetically averaged.
When mixtures of ionic liquid and solvent were used as additive, the weight ratio of ionic liquid to solvent or to the solvent mixture (IL/LM) was 20/80.

[2] = Hansen solubility parameters and solubility distance Ra of solvents; format: physicochemical; set-up: key: solubility distance Ra in MPa^1/2; conditions: solubility distance calculated from formula 1
Excerpt: The value will hereinafter also be referred to as solubility distance Ra. The definition and calculation of the solubility parameters in the three-dimensional Hansen solubility space are described in: C. M. Hansen: “The three dimensional solubility parameters” J. Paint Technol. […] In this Hansen space, δD denotes the LONDON dispersion forces, δP denotes the Debye interaction forces between permanent dipoles and also the Keesom interaction forces between induced and permanent dipoles and δH denotes the specific interaction forces (hydrogen bonds, acid/base, donor/acceptor, etc.). The unit of the parts of the parameters is in each case [MPa^1/2].
The Hansen solubility parameters for many solvents are tabulated in standard works such as Hansen Solubility Parameters: A User's Handbook, C. […] It is also possible to use known modeling software, for example HSPIP 3.1.14 (3rd Edition), developed and marketed by C. M. Hansen, in order to calculate the Hansen solubility parameters on the basis of the chemical structure of the solvent.

[3] = relative static permittivity, liquid pure substance; cited from earlier work
[4] = Hansen solubility parameter, room temperature, about 23° C., cited from earlier work; for δD: LONDON dispersion forces; for δP: dipole interaction forces; for δH: specific interaction forces (hydrogen bonds etc.)
[5] = Solubility of phenothiazine in ionic liquid/solvent mixtures relative to pure solvent; conditions: 20% by weight ionic liquid, 80% by weight solvent; room temperature; FIGS. 1 to 4
Experimental: In the same way, the solubility of phenothiazine in the pure solvent was determined.

[6] = Phase diagram of the system phenothiazine/proglyme/EMIM ethylsulfate; format: physicochemical; conditions: room temperature, FIG. 6
Experimental: (§1) The phase diagram (triangular diagram) of the system phenothiazine/proglyme/EMIM ethylsulfate was determined at room temperature. In the triangular diagram, the corners correspond to the pure materials. The sides of the triangle correspond to two-component mixtures. The proportions of phenothiazine/proglyme/EMIM ethylsulfate at any point P are given by the intersections of the parallels to the sides through P with the other sides. The phase behavior (single-phase, two phases liquid/liquid, two phases solid/liquid, three-phase) at selected points is indicated by symbols.

[7] = Phase diagram of the system phenothiazine/proglyme/EMIM acetate; format: physicochemical; conditions: room temperature, FIG. 5
Experimental: as §1, with “phenothiazine/proglyme/EMIM acetate” for “phenothiazine/proglyme/EMIM ethylsulfate”, “the side” for “the sides”

| Compound | Inhibiting period ([1]; additive 1000 ppm) | Ra [2] | εr at 20° C. [3] | δD [4] | δP [4] | δH [4] | further results |
| --- | --- | --- | --- | --- | --- | --- | --- |
| CN(C)CCCN [3-(Dimethylamino)-1-propylamine, 3-(dimethylamino)-1-propylamine] | 407 min | – | – | – | – | – | – |
| CC(=O)O [Acetic acid] | 347 min | – | – | – | – | – | – |
| CC#N [Acetonitrile] | 335 min | 7.8 | 36.8 | 15.3 MPa^1/2 | 18.0 MPa^1/2 | 6.1 MPa^1/2 | – |
| CCCCC(CC)COC(=O)C(C)O (centres unmarked) [Agnique AE 3 2 EH, 2-ethylhexyl lactate] | 279 min | – | – | – | – | – | – |
| CC(O)C(=O)N(C)C (centres unmarked) [Agnique AMD 3 L, N,N-dimethyllactamide] | 405 min | – | – | – | – | – | – |
| CCCCCCCCO [Agnique FOH 898, n-octanol] | 332 min | – | – | – | – | – | – |
| COc1ccc(C(OC)OC)cc1 [Anisacetal, p-(dimethoxymethyl)anisole] | 320 min | – | – | – | – | – | – |
| N#Cc1ccccc1 [Benzonitrile] | 334 min | 4.6 | 25.7 | 18.8 MPa^1/2 | 12.0 MPa^1/2 | 3.3 MPa^1/2 | – |
| OCc1ccccc1 [Benzyl alcohol] | 355 min | – | – | – | – | – | – |
| CCCCCCCCCC(=O)N(C)C [C10-fatty acid dimethylamide] | 335 min | – | 13.8 | 16.6 MPa^1/2 | 6.7 MPa^1/2 | 5.7 MPa^1/2 | – |
| O=C1CCCCC1 [Cyclohexanone] | 75 min | 3.2 | 16.1 | 17.8 MPa^1/2 | 8.4 MPa^1/2 | 5.1 MPa^1/2 | – |
| O [DI water, deionized water] | 327 min | – | – | – | – | – | – |
| C[S+](C)[O-] [DMSO] | 317 min | 7.4 | 47.3 | 18.4 MPa^1/2 | 16.4 MPa^1/2 | 10.2 MPa^1/2 | – |
| C1CCC2CCCCC2C1 (centres unmarked) [Decahydronaphthalene] | 347 min | – | – | – | – | – | – |
| CCCCC(CC)COC(=O)CCCCC(=O)OCC(CC)CCCC (centres unmarked) [Di(2-ethylhexyl) adipate] | 350 min | 6.8 | 2.1 | 16.2 MPa^1/2 | 4.6 MPa^1/2 | 7.7 MPa^1/2 | – |
| CCCCOC(=O)CCCCC(=O)OCCCC [Dibutyl adipate (Cetiol B), Dibutyl adipate] | 347 min | 6.8 | 3.0 | 16.4 MPa^1/2 | 4.3 MPa^1/2 | 5.9 MPa^1/2 | – |
| COC(=O)c1ccccc1C(=O)OC [Dimethyl phthalate] | 348 min | – | – | – | – | – | – |

| Compound | Inhibiting period ([1]; additive 1000 ppm) | Ra [2] | εr at 20° C. [3] | δD [4] | δP [4] | δH [4] | further results |
| --- | --- | --- | --- | --- | --- | --- | --- |
| COC(=O)CCC(=O)OC [Dimethyl succinate] | 348 min | 4.7 | 7.3 | 16.1 MPa^1/2 | 7.7 MPa^1/2 | 8.8 MPa^1/2 | – |
| CN1CCN(C)C1=O [Dimethylethyleneurea] | 313 min | – | – | – | – | – | – |
| COCC(C)OCC(C)OC (centres unmarked) [Dipropylene glycol dimethyl ether] | 339 min | 7.1 | 10.4 | 15.5 MPa^1/2 | 4.6 MPa^1/2 | 6.1 MPa^1/2 | – |
| OCCO [Ethylene glycol] | 365 min | – | – | – | – | – | relative solubility of phenothiazine in a mixture of ionic liquid and solvent, based on the solubility in the pure solvent [5]: only a small solubility-increasing effect or solubility-reducing effect |
| NCCN [Ethylenediamine] | 341 min | – | – | – | – | – | – |
| COC(=O)c1ccccc1 [Methyl benzoate] | 350 min | 4.9 | 6.7 | 18.9 MPa^1/2 | 8.2 MPa^1/2 | 4.7 MPa^1/2 | – |
| CCCCC(C)=O [Methyl butyl ketone] | 309 min | 6.3 | 14.5 | 15.3 MPa^1/2 | 6.1 MPa^1/2 | 4.1 MPa^1/2 | – |
| C1COCCN1 [Morpholine] | 410 min | 8.1 | 7.8 | 18.0 MPa^1/2 | 4.9 MPa^1/2 | 11.0 MPa^1/2 | – |
| Cn1ccnc1 [N-Methylimidazole] | 366 min | 8.8 | 32.0 | 19.7 MPa^1/2 | 15.6 MPa^1/2 | 11.2 MPa^1/2 | – |
| CN1CCCC1=O [N-Methylpyrrolidone] | 343 min | 8.2 | 32.8 | 16.8 MPa^1/2 | 2.8 MPa^1/2 | 6.7 MPa^1/2 | – |
| CCC(=O)O [Propionic acid] | 337 min | – | – | – | – | – | – |
| O=S1(=O)CCCC1 [Sulfolane] | 330 min | – | 42.7 | – | – | – | – |
| c1ccc2c(c1)Nc1ccccc1S2 [phenothiazine] | – | – | – | – | – | – | phase behavior (compatibility of ionic liquid and solvent) [6]: an incompatibility between the ionic liquid and the solvent (formation of two liquid phases) is eliminated by the addition of phenothiazine above a particular concentration; solubility of phenothiazine in the solvent on addition of ionic liquid [6]: even small additions of the ionic liquid increase the solubility of phenothiazine in the solvent, with a linear increase or a slight synergistic effect up to solubility in the pure ionic liquid; phase behavior (compatibility of ionic liquid and solvent) [7]: an incompatibility between the ionic liquid and the solvent (formation of two liquid phases) is eliminated by the addition of phenothiazine above a particular concentration; solubility of phenothiazine in the solvent on addition of ionic liquid [7]: even small additions of the ionic liquid increase the solubility of phenothiazine in the solvent, with a linear increase up to the solubility in the pure ionic liquid |
| O=C1CCCO1 [γ-Butyrolactone] | 361 min | 6.1 | 41.4 | 18.0 MPa^1/2 | 16.6 MPa^1/2 | 7.4 MPa^1/2 | – |
| N-ethyl-N′-methylimidazolium ethylsulfate [EMIM ethylsulfate] | – | – | – | – | – | – | Inhibiting period ([1]; additive 29 ppm): 386 min |
| N-ethyl-N′-methylimidazolium isononanoate [EMIM isononanoate] | 379 min | – | – | – | – | – | – |
| tetrabutylammonium [2-(2-methoxyethoxy)ethoxy]acetate [TBA ether carboxylate] | – | – | – | – | – | – | Inhibiting period ([1]; additive 22 ppm): 378 min |
